Experimental data reported in patent US12617790B2, “Mitragynine analogs and uses thereof” (Memorial Sloan-Kettering Cancer Center, priority 2015, dated 2026).
Read-outs that look alike come from different tables or passages of the source.

How the values were obtained:
MOR-1 [1] = target: T1, MOR-1 (Mus musculus, UniProt P42866); experiment: [35S]GTPγS functional assay, MOR-1 transfected cell membranes; format: biochemical; parameters: Emax: dose or concentration left out as unconfirmed; settings: for Emax: read-out: MOR-1 Emax (%)
T1 construct: expressed in transfected cells; host or cells: CHO

KOR-1 [2] = target: T2, KOR-1 (Mus musculus, UniProt P33534); experiment: [35S]GTPγS functional assay, KOR-1 transfected cell membranes; format: biochemical
T2 construct: expressed in transfected cells; host or cells: CHO

DOR-1 [3] = target: T3, DOR-1 (Mus musculus, UniProt P32300); experiment: [35S]GTPγS functional assay, DOR-1 transfected cell membranes; format: biochemical; settings: for EC50: agonist stimulation of [35S]GTPγS binding; for IC50: antagonism of 100 nM DPDPE, read-out: DOR-1 IC50
T3 construct: expressed in transfected cells; host or cells: CHO

KOR-1 [4] = target: T2, KOR-1; experiment: Competition binding against 125I-IBNtxA in KOR-1/CHO membranes
MOR-1 [5] = target: T1, MOR-1; experiment: Competition binding against 125I-IBNtxA in MOR-1/CHO membranes
DOR-1 [6] = target: T3, DOR-1; experiment: Competition binding against 125I-IBNtxA in DOR-1/CHO membranes
CD1 mice [7] = experiment: Radiant heat tail flick analgesia, icv, CD1 mice; format: in vivo, mouse; settings: ED50, cumulative dose-response, tail flick 15 min after icv dose
CD1 mice [8] = experiment: Radiant heat tail flick analgesia, sc, CD1 mice; format: in vivo; settings: Mus musculus, 0.25 h, ED50, cumulative dose-response, tail flick 15 min after sc dose
CD1 mice [9] = experiment: Respiratory depression assessment (MouseOx pulse oximeter breath rate)
CD1 male mice = experiment: Tolerance study, chronic twice daily dosing, tail flick; settings: Mus musculus, sc, 0 h, read-out: analgesic ED50, naïve (day 0)
CD1 mice [10] = experiment: Reversal of tail flick antinociception by selective opioid antagonists, CD1 mice; format: in vivo, mouse; settings: VM1501 1.0 mg/kg sc, VM1502 1.5 mg/kg sc
mice [11] = experiment: Gastrointestinal motility assay (charcoal meal transit); settings: FIG. 8D: VM1501 0.5 and 1 mg/kg, 30 min
129/Sv mice = experiment: Tail flick antinociception icv in 129/Sv mice (wild type and Exon11 knockout); format: in vivo, mouse; settings: 15 min
mice [12] = experiment: Antisense oligodeoxynucleotide downregulation, tail flick antinociception; format: in vivo, mouse; settings: antisense icv days 1, 3, 5, test day 6; VM1501 1.0 mg/kg sc, VM1502 1.5 mg/kg sc
[13] = agonist stimulation of [35S]GTPγS binding, read-out: MOR-1 EC50
[14] = 125I-IBNtxA (0.1 nM), CHO membranes, cloned mouse receptor, read-out: Affinity (Ki nM) KOR-1
[15] = 125I-IBNtxA (0.1 nM), CHO membranes, cloned mouse receptor, read-out: Affinity (Ki nM) DOR-1
[16] = antagonism of 100 nM U50,488H, read-out: KOR-1 IC50
[17] = FIG. 14, 5x antinociceptive ED50: VM1502 3.75 mg/kg sc, VM1512 5.0 mg/kg sc, morphine 10 mg/kg
[18] = FIG. 8C: VM1501 2.5 mg/kg sc (5x ED50), morphine 10 mg/kg, 50 min post-injection

Structure (SMILES) | EC50 (MOR-1 [1]; [13]) | Ki (KOR-1 [4]; [14]) | Ki (MOR-1 [5]) | Ki (DOR-1 [6]; [15]) | Emax (MOR-1 [1]) | Analgesia icv (CD1 mice [7]) | IC50 (KOR-1 [2]; [16]) | ED50 (CD1 mice [8]) | further results
CC[C@@H]1CN2CCC3(Nc4c(-c5ccoc5)ccc(OC)c4C3=O)C2C[C@@H]1/C(=C\OC)C(=O)OC (stereo partly drawn) [VM1514, Methyl (E)-2-((6'S,7'S)-6′-ethyl-7-(furan-3-yl)-4-methoxy-3-oxo-2′,3′,6′,7′,8′,8a′-hexahydro-5′H-spiro[indoline-2,1′-indolizin]-7′-yl)-3-methoxyacrylate] | > 1000 nM | 119 nM | 41 nM | 40 nM |  |  |  |  | EC50 (KOR-1 [2]; agonist stimulation of [35S]GTPγS binding): 40 nM; EC50 (DOR-1 [3]): 244 nM
CC[C@@H]1CN2CC[C@@]3(O)C(=Nc4ccccc43)[C@@H]2C[C@@H]1/C(=C\OC)C(=O)OC [VM1522, Methyl (E)-2-((2S,3S,7aS,12bS)-3-ethyl-7a-hydroxy-1,2,3,4,6,7,7a,12b-octahydroindolo[2,3-a]quinolizin-2-yl)-3-methoxyacrylate] | 34 nM | 781 nM | 23 nM | 147 nM | 116% | 0.1 µg |  |  | 
CC[C@@H]1CN2CC[C@]3(Nc4cccc(-c5ccccc5)c4C3=O)C2C[C@@H]1/C(=C\OC)C(=O)OC (stereo partly drawn) [VM1511, (E)-methyl 2-((1'S,6'S,7'S)-6′-ethyl-3-oxo-4-phenyl-3′,5′,6′,7′,8′,8a′-hexahydro-2′H-spiro[indoline-2,1′-indolizine]-7′-yl)-3-methoxyacrylate] | 1.4 nM | 51 nM | 0.91 nM | 0.8 nM | 123% |  | 171 nM | 1 mg/kg | EC50 (DOR-1 [3]): 0.83 nM; Emax (DOR-1 [3]; percent maximal stimulation relative to DPDPE, read-out: DOR-1 Emax (value in parentheses after EC50)): 89%
CC[C@@H]1CN2CCc3c([nH]c4cccc(O)c34)[C@@H]2C[C@@H]1/C(=C\OC)C(=O)OC [VM1532, Methyl (E)-2-((2S,3S,12bS)-3-ethyl-8-hydroxy-1,2,3,4,6,7,12,12b-octahydroindolo[2,3-a]quinolizin-2-yl)-3-methoxyacrylate] | 422 nM | 769 nM | 207 nM | 532 nM | 62% | 9 µg |  |  | 
CC[C@@H]1CN2CCc3c([nH]c4ccccc34)[C@@H]2C[C@@H]1/C(=C\OC)C(=O)OC [VM1540, Methyl (E)-2-((2S,3S,12bS)-3-ethyl-1,2,3,4,6,7,12,12b-octahydroindolo[2,3-a]quinolizin-2-yl)-3-methoxyacrylate] |  |  |  |  | 74% | 0.1 µg |  |  | 
CC[C@@H]1CN2CC[C@]3(Nc4cccc(-c5ccoc5)c4C3=O)C2C[C@@H]1/C(=C\OC)C(=O)OC (stereo partly drawn) [VM1512, (E)-methyl 2-((1'S,6'S,7'S)-6′-ethyl-4-(furan-3-yl)-3-oxo-3′,5′,6′,7′,8′,8a′-hexahydro-2′H-spiro[indoline-2,1′-indolizine]-7′-yl)-3-methoxyacrylate] | 1.5 nM | 39 nM | 0.94 nM | 1.5 nM |  |  | 202 nM | 1.1 mg/kg | IC50 (DOR-1 [3]): 39 nM; respiratory rate (CD1 mice [9]; [17]): showed no signs respiratory depression
CN1CC[C@]23c4c5ccc(O)c4O[C@H]2[C@@H](O)C=C[C@H]3[C@H]1C5 [morphine, reference compound] |  |  |  |  |  | 0.53 µg |  | 4.6 mg/kg | respiratory rate (CD1 mice [9]; [18]): caused respiratory depression; respiratory rate (CD1 mice [9]; FIG. 12D, 2x antinociceptive ED50: VM1502 1.2 mg/kg sc, morphine 5 mg/kg): caused respiratory depression; respiratory rate (CD1 mice [9]; FIG. 12D, 5x antinociceptive ED50: VM1502 3 mg/kg sc, morphine 10 mg/kg): caused respiratory depression; respiratory rate (CD1 mice [9]; [17]): caused respiratory depression; ED50 (CD1 male mice): 2 mg/kg
Oc1ccc2c3c1O[C@H]1c4[nH]c5c(c4C[C@@]4(O)[C@@H](C2)N(CC2CC2)CC[C@]314)C[C@@]1(O)[C@H]2Cc3ccc(O)c4c3[C@@]1(CCN2CC1CC1)[C@H]5O4 [norBNI, norbinaltorphimine, reference compound] |  | 0.23 nM |  |  |  |  | 2.9 nM |  | 
CC[C@@H]1CN2CCc3c([nH]c4cccc(OC)c34)[C@@H]2C[C@@H]1/C(=C\OC)C(=O)OC [VM1500, (E)-Methyl-2-((2S,3S,12bS)-3-ethyl-8-methoxy-1,2,3,4,6,7,12,12b-octahydroindolo[2,3-a]quinolizin-2-yl)-3-methoxyacrylate] |  |  |  |  | 65% | 42 µg |  | 166 mg/kg | 
CC[C@@H]1CN2CC[C@]3(Nc4cccc(C#N)c4C3=O)C2C[C@@H]1/C(=C\OC)C(=O)OC (stereo partly drawn) [VM1509, (E)-methyl 2-((1'S,6'S,7'S)-4-cyano-6′-ethyl-3-oxo-3′,5′,6′,7′,8′,8a′-hexahydro-2′H-spiro[indoline-2,1′-indolizine]-7′-yl)-3-methoxyacrylate] | 0.7 nM | 47 nM | 0.5 nM | 2.4 nM | 122% |  | 721 nM | 0.32 mg/kg | IC50 (DOR-1 [3]): 73 nM
CC[C@@H]1CN2CC[C@@]3(O)C(=Nc4cccc(OC)c43)C2C[C@@H]1/C(=C\OC)C(=O)OC (stereo partly drawn) [VM1501, (E)-methyl-2-((2S,3S,7aS)-3-ethyl-7a-hydroxy-8-methoxy-1,2,3,4,6,7,7a,12b-octahydroindolo[2,3-a]quinolizin-2-yl)-3-methoxyacrylate] |  |  | 37 nM |  |  | 0.06 µg |  | 0.46 mg/kg | antinociception after NTI (0.5 mg/kg sc) and norBNI (10 mg/kg sc) (CD1 mice [10]): insensitive to NTI and norBNI; antinociception after β-FNA (40 mg/kg sc) (CD1 mice [10]): antagonized by β-FNA; gastrointestinal transit (mice [11]): did not lower transit significantly compared with saline; EC50 (MOR-1 [1]): 53 nM; IC50 (KOR-1 [2]): 2520 nM; ED50 antinociception icv, Exon11 knockout (129/Sv mice; 129/Sv Exon11 knockout mice): 0.83 µg; ED50 antinociception icv, wild type (129/Sv mice; 129/Sv wild type mice): 0.022 µg; Ki (KOR-1 [4]): 132 nM; respiratory rate (CD1 mice [9]; [18]): did not depress respiratory rate; analgesic response after antisense downregulation (mice [12]): diminished in MOR-1-downregulated mice; Ki (DOR-1 [6]): 91 nM
CC[C@@H]1CN2CC[C@]3(Nc4ccccc4C3=O)C2C[C@@H]1/C(=C\OC)C(=O)OC (stereo partly drawn) [VM1508, (E)-methyl 2-((1'S,6'S,7'S)-6′-ethyl-3-oxo-3′,5′,6′,7′,8′,8a′-hexahydro-2′H-spiro[indoline-2,1′-indolizine]-7′-yl)-3-methoxyacrylate] | 1.4 nM | 19 nM | 0.46 nM | 2.9 nM | 116% |  | 252 nM | 0.24 mg/kg | IC50 (DOR-1 [3]): 193 nM
